{
  "source": "patent US20070033061A1",
  "about": "(priority 2005, published 2007)",
  "assay_type_in_all_cases": "cell-based",
  "key": {"[1]": {"system": "membrane permeabilized E. coli", "conditions": "for enhancement of the activity of ciprofloxacin: at 25 μM"}, "E. coli ΔrecB strains": {"system": "E. coli ΔrecB strains"}, "[2]": {"system": "E. coli strain MG1655 and mutated strains", "experiment": "microbe, parasite or virus in culture"}, "E. coli wild-type": {"system": "E. coli wild-type"}, "[3]": {"system": "E. coli MG1655 loss of function strains", "experiment": "microbe, parasite or virus in culture"}, "[4]": {"system": "E. coli strains RTC0141-RTC0148"}, "[5]": {"system": "P. aeruginosa strains RTC1014-RTC1019"}},
  "data": [
    {"molecule": "Nc1ccc2noc3c2c1C(=O)c1ccccc1-3", "note": "[Formula Ia]", "values": [
      {"measurement": "MIC shift in ciprofloxacin responsiveness", "setting": "[1]", "result": 10, "unit": "×"}
    ]},
    {"molecule": "NCCCCCCNc1ccnc2cc(Cl)ccc12", "note": "[Formula III]", "values": [
      {"measurement": "ciprofloxacin sensitization", "setting": "[1]", "result": "enhanced ciprofloxacin sensitivity"}
    ]},
    {"molecule": "Cn1c2ccccc2n2c3ncccc3c(=O)c(C#N)c12", "note": "[Formula IIb]", "values": [
      {"measurement": "enhancement of the activity of ciprofloxacin", "setting": "[1]", "result": "enhanced the activity of ciprofloxacin"}
    ]},
    {"molecule": "CO[C@@]12[C@H](COC(N)=O)C3=C(C(=O)C(C)=C(N)C3=O)N1C[C@@H]1N[C@@H]12", "note": "[Mitomycin C]", "values": [
      {"measurement": "Mitomycin C MIC lower compared to recB+ strains", "setting": "E. coli ΔrecB strains", "result": "about 8 fold"}
    ]},
    {"molecule": "O=C(O)c1cn(C2CC2)c2cc(N3CCNCC3)c(F)cc2c1=O", "note": "[ciprofloxacin]", "values": [
      {"measurement": "ciprofloxacin MIC, gyrA S83Δ", "setting": "[2]", "result": 0.25, "unit": "µg/mL"},
      {"measurement": "MIC", "setting": "[2]; Escherichia coli, MG1655, read-out: ciprofloxacin MIC", "result": "< 0.001", "unit": "µg/mL"},
      {"measurement": "cells killed", "setting": "E. coli wild-type", "result": 99, "unit": "%"},
      {"measurement": "ciprofloxacin MIC, gyrA S83Δ", "setting": "[3]", "result": 0.25, "unit": "µg/mL"},
      {"measurement": "MIC", "setting": "[3]; Escherichia coli, MG1655, read-out: ciprofloxacin MIC, gyrA S83L", "result": 0.45, "unit": "µg/mL"}
    ]},
    {"molecule": "Cn1c2ccccc2n2c3cnccc3c(=O)c(C#N)c12", "note": "[Formula IIc]", "values": [
      {"measurement": "enhancement of the activity of ciprofloxacin", "setting": "[1]", "result": "enhanced the activity of ciprofloxacin"}
    ]},
    {"molecule": "lambda gam: protein used by λ phage to inhibit E. coli RecB; overexpressed from an arabinose-inducible vector (protein, UniProt P03702 1-138, looked up) Host-nuclease inhibitor …: MDINTETEIKQKHSLTPFPVFLISPAFRGRYFHSYFRSSAMNAYYIQDRLEAQSWARHYQQLAREEKEAELADDMEKGLPQHLFESLCIDHLQRHGASKKSITRAFDDDVEFQERMAEHIRYMVETIAHHQVDIDSEV", "values": [
      {"measurement": "decrease in the ciprofloxacin IC50 on overexpression of lambda gam", "setting": "[4]", "result": "5-8 fold"},
      {"measurement": "effect of lambda gam overexpression on ciprofloxacin sensitivity", "setting": "[4]", "result": "no effect"},
      {"measurement": "decrease in the ciprofloxacin MIC on overexpression of lambda gam", "setting": "[5]", "result": "2-4 fold"},
      {"measurement": "effect of lambda gam overexpression on ciprofloxacin sensitivity", "setting": "[5]", "result": "no effect"}
    ]}
  ]
}
